Measured values published in PMC2680940 (Biochemistry, 2009).

What was measured:
[1] = target: T1, 4-chlorobenzoate:CoA ligase (CBL) (Alcaligenes sp. AL3007, UniProt Q8GN86, D402P); assay: continuous spectrophotometric assay at […] nm, initial velocity; assay type: biochemical; settings: 20 μM 4-CB, 10 mM CoA, 15 mM MgCl2, 50 mM K+HEPES pH 7.5, 25 °C
T1 sequence (Q8GN86 1-504 D402P): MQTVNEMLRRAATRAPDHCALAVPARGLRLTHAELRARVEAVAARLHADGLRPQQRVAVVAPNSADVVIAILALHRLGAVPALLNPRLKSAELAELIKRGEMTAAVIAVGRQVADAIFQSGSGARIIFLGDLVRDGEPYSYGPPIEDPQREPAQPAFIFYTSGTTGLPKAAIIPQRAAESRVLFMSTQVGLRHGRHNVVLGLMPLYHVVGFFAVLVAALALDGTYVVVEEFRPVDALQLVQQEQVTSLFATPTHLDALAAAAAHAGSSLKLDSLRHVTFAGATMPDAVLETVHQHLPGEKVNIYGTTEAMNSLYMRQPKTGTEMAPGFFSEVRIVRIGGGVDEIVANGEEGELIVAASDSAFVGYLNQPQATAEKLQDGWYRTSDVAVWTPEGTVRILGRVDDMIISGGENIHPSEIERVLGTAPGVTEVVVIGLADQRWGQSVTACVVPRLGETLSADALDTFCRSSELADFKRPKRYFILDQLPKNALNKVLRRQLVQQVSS

[2] = target: T2, 4-chlorobenzoate:CoA ligase (CBL) (Alcaligenes sp. AL3007, UniProt Q8GN86, D402A); assay: as above; assay type: biochemical; settings: 20 μM 4-CB, 10 mM CoA, 15 mM MgCl2, 50 mM K+HEPES pH 7.5, 25 °C
T2 sequence (Q8GN86 1-504 D402A): T1 sequence (Q8GN86 1-504 D402P)

SMILES: Nc1ncnc2c1ncn2[C@@H]1O[C@H](COP(=O)(O)OP(=O)(O)OP(=O)(O)O)[C@@H](O)[C@H]1O [ATP, adenosine-5′-triphosphate]
- Km [1]: 13.1 ± 0.7 µM
- Km [2]: 28.1 ± 0.9 µM
